One series deals with mouse spleen cell. The series is described as follows: Mouse spleen cell proliferation inhibiting activity. The format is cell-based. The settings on record: mouse spleen cells. An excerpt:
The present invention also provides the results of experimental studies on the biological activity of said compounds.

Series [1] concerns Coxsackie virus type B3 (COX-B3). The series is described as follows: Anti-Coxsackie virus type B3 (COX-B3) activity, CPE in Vero cells. The format is cell-based. The settings on record: Reed-Muench. A digest of the protocol:
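Vero cells infected with 10^−5 COX-B3 or COX-B6 virus, adsorbed 2 h; virus removed, then compounds added at eight 3-fold dilutions, ribavirin as positive control. CPE scored when virus controls reached 4+; IC50 by Reed-Muench.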

Series [2] deals with Coxsackie virus type B6 (COX-B6). Kind of series: Anti-Coxsackie virus type B6 (COX-B6) activity, CPE in Vero cells. The series is classed as cell-based. As to conditions: Reed-Muench. On the procedure:
With Vero (African green monkey kidney) cells as viral hosts, inhibitory effects of the compounds of present invention on the grades of pathological lesions by coxsackievirus B3 (COX-B3), B6 (COX-B6) viruses in Vero cells were determined. The measured results of viral inhibitory activity of the compounds are shown in Table 3 and Table 4; wherein RBV is the control drug ribavirin. The inhibitory activities of the measured compounds against coxsackievirus B3, B6 were stronger than the control.
Screening of Anti-B3, B6 Type Coxsackie Viruses (COX-B3, COX-B6) Activity of the Samples
Prepare stock solutions of COX-B3 (or COX-B6) virus strains as well as tested compounds in DMSO before use. Before tests, dilute the stock solution with culture solution into a certain concentration and then dilute 3 times to make a total of eight dilutions. Use ribavirin (RBV) as positive control. Test procedures are as follows: seed Vero cells into 96-well culture plates, infect with 10^−5 Coxsackie virus of B3 (or B6) type, 24 hours later; adsorb subsequently for 2 hours, then discard the virus solution, add in the sample compounds and the positive control according to the abovementioned dilutions, set cell control wells and virus control wells simultaneously. When the cytopathic effect (CPE) of cells in the virus control wells reach 4+, observe CPE of the cells in each group. Use Reed-Muench method to calculate 50% inhibitory concentration (IC50) of the sample compounds against coxsackie virus B3 (or B6) type.

For series [3], the system named is human hepatoma cell HepG2. The series is described as follows: In vitro human hepatoma cell HepG2 inhibitory activity (MTT). The format is cell-based. The settings on record: Homo sapiens, HepG2, 48 h. An excerpt: (§1) According to the progress in the studies on anticancer drugs using IMPDH as a target, the present invention measured inhibitory activities of the compounds of present invention against human hepatoma cell HepG2 and human lung adenocarcinoma cell A549, respectively, the measured results are shown in Table 5:
In Vitro Human Hepatoma Cell HepG2 Inhibitory Activity Measurement
Collect well growing tumor cells, prepare 6×10^4/ml cell suspension in RPMI-1640 or DMEM culture medium containing 10% FBS, seed in 96-well plates, 100 μl suspension each well, incubate at 37° C. under 5% CO2 atmosphere for 24 h, add the test solution (final concentration of drug: 0.625, 1.25, 2.5, 5.0, 10 μg/ml), for each concentration set three parallel holes, set positive control (cisplatin 10, 1, 0.1 μg/ml) and a blank control simultaneously. After culture for 48 h discard the supernatants, add into each well 10 μl MTT solution (5 mg/ml, prepared with RPMI-1640 medium), continue culturing for 4 It, add into each hole 100 μl acidified isopropanol cell lysate, culture overnight, measure absorbance (A) values with Bio-Tek MQX200 type microplate reader with the detection wavelength at 540 nm, and reference wavelength 450 nm. Calculate the inhibition rate as follows: inhibition rate=(Ablank−Asample)/Ablank control×100%. Use Graphpad Prism 5 statistical software to calculate IC50.

Series [4] concerns human lung adenocarcinoma cell A549. The series is described as follows: In vitro human lung adenocarcinoma cell A549 inhibitory activity (MTT). The format is cell-based. The settings on record: Homo sapiens, A549, 48 h.
Text: as §1
In Vitro Human Lung Adenocarcinoma Cell A549 Inhibitory Activity Measurement
Cell lines: human lung adenocarcinoma cell A549. Collect well growing tumor cells, prepare cell suspension with Ham's F12 culture solution containing 10% fetal calf serum medium, seed the suspension in 96-well plates, each well 100 μl suspension at 5000 cells/well, incubate at 37° C., under 5% CO2 atmosphere, 24 h later, add 2×drug solution […], each concentration in three parallel holes, set the blank control simultaneously. After culture for 48 h, add 20 μl (5 mg/ml) MTT to each well, culture 4 h, discard the supernatants. Measure absorbance (A) values using Bio-Rad 680 microplate reader at a detection wavelength of 570 nm, the survival rate (%) is calculated as follows: AsampleAblank control×100%. Use statistical software Graphpad Prism5 to calculate IC50. After primary screening of all samples, adjust the concentration gradient of the samples with IC50<100 μg/ml to do additional screenings, which are carried out with two parallel determinations.

A further series relates to IMPDH. Kind of series: IMPDH inhibition activity (A340, IMP substrate, NAD). The format is biochemical. The settings on record: compound at 10 μg/mL. The protocol: Measurement of IMPDH Inhibitor Activity
In 96-well plates, use IMP as the substrate and NAD, NADH as chromogenic agents to determine the activity of the compounds described in this invention as IMPDH inhibitor. Add 2 μl of each of the tested sample solution, 20 μl enzyme extract and 30 μl IMP into a sample well in the 96-well plates; 2 μl DMSO and 30 μl IMP solution into a control well; 2 μl DMSO and 20 μl IMPDH buffer instead of the enzyme extract and 30 μl IMP solution into a blank well. Keep plates at constant 37° C. for 15 min, measure absorbance values A340 (OD1) of the solutions in various wells; subsequently, add into each well with 50 μl NAD, keep at constant 37° C. for 50 min, then measure A340 (OD2) values. Calculate IMPDH inhibition rates of samples as follows: Inhibition (%)=[(OD2−OD1)control−(OD2−OD1)Sample]/[(OD2−OD1)control−(OD2−OD1)Blank]×100%.

The test system of series [5] is hepatitis B virus. As to conditions: cell line 2215, hepatitis B virus.
Series [6] concerns hepatitis B virus strain A64 (lamivudine resistance).
The test system of series [7] is hepatitis B virus. Kind of series: in vitro. The settings on record: human.
The subject of series [8] is hepatitis B virus strain A64 (lamivudine resistance). Kind of series: in vitro. The settings on record: human.
Series [9] concerns hepatitis B virus. The series is described as follows: microbe, parasite or virus in culture. As to conditions: read-out: IC50 (50% inhibition concentration of the virus).
Series [10] relates to hepatitis B virus strain A64 (lamivudine resistance). Kind of series: microbe, parasite or virus in culture. As to conditions: read-out: IC50 (50% inhibition concentration of the virus).

In brackets after ≈: the same amount, converted by molar mass. Bounds are passed on as bounds.

Take `COc1ccccc1/C=C/CNc1ccc(-c2cnco2)c(OC)c1` [Compound 63]: the IC50 with mouse spleen cell worked out at 2.22 µg/mL (≈ 6.6 µM); in series [1] it was 0.47 µg/mL (≈ 1.4 µM); in series [2], 2.47 µg/mL (≈ 7.34 µM); in series [3], 19.4 µg/mL (≈ 57.5 µM); in series [4], 14.1 µg/mL (≈ 42 µM).

For the compound `COc1cc(NCc2ccc(Cl)s2)ccc1-c1cnco1` [Compound 4, N-(5-chlorothien-2-ylmethyl)-3-methoxy-4-(oxazol-5-yl) aniline], the “inhibition rate (%) 10 μg/mL” value with IMPDH was found to be 74.9%. Moreover, the IC50 in [1] stood at 0.44 µg/mL (≈ 1.37 µM); in [2] it was 0.27 µg/mL (≈ 0.842 µM); in series [3], 29.1 µg/mL (≈ 90.7 µM); in [4], 16 µg/mL (≈ 50 µM); in the series with hepatitis B virus [9], 2.72 µg/mL (≈ 8.48 µM); in [10], 1.78 µg/mL (≈ 5.55 µM). Moreover, the “TC50 (half toxic concentration)” value is 100 µg/mL (≈ 312 µM) with hepatitis B virus [5] and more than 50 µg/mL in [6]. Also, the selectivity ratio in the series with hepatitis B virus [7] was 36.8; in series [8], more than 28.1.

With `COc1cc(NCc2ccc(C)o2)ccc1-c1cnco1` [Compound 42, N-(5-methylfuran-2-ylmethyl)-3-methoxy-4-(oxazol-5-yl) aniline], the “inhibition rate (%) 10 μg/mL” value in the series with IMPDH is listed as 60.7%. Moreover, the IC50 in series [1] is 1.43 µg/mL (≈ 5.03 µM); in series [2], 1.93 µg/mL (≈ 6.79 µM); in series [3] it was 31.3 µg/mL (≈ 110 µM); in series [4], 20.7 µg/mL (≈ 72.8 µM).

As for `COc1cc(NCc2ccc(C)s2)ccc1-c1cnco1` [Compound 2, N-(5-methylthien-2-ylmethyl)-3-methoxy-4-(oxazol-5-yl) aniline], the “inhibition rate (%) 10 μg/mL” value in the series with IMPDH is listed as 68.7%. Besides, the IC50 in series [1] was 0.23 µg/mL (≈ 0.766 µM); in [2], 0.63 µg/mL (≈ 2.1 µM); in series [3], 7.95 µg/mL (≈ 26.5 µM); in [4], 18.6 µg/mL (≈ 61.9 µM).

(Values after patent US20150031686A1, “PHENYL-OXAZOLYL DERIVATIVES, PREPARATION METHOD THEREOF, AND RELATED APPLICATION OF THE PHENYL-OXAZOLYL DERIVATIVES AS AN IMPDH INHIBITOR” (INSTITUTE OF MEDICINAL BIOTECHNOLOGY, CHINESE ACADEMY OF …, priority 2012, published 2015).)
